Measurements reported in patent US20230416801A1, “ANTIMICROBIC SUSCEPTIBILITY TESTING USING RECURRENT NEURAL NETWORKS” (Beckman Coulter, Inc., priority 2020, published 2023).

Experiments:
Pseudomonas aeruginosa [1] = assay: Growth/no growth determinations made at 4, 5 and 6 hours by trained recurrent neural network (24 GRU) model from test-well organism counts; type: cell-based; conditions: for 4 Hour Call: model output 0-1 at 4 hours; for 5 Hour Call: model output 0-1 at 5 hours; for 6 Hour Call: model output 0-1 at 6 hours
Description: FIG. 8 provides an illustration of how data that can be used in an optimized AST method 101 can be captured from a test well. Test well 20 is embodied by a “384” style test well, having a clear viewing bottom. The volume of inoculum in test well 20 may be set to 20 microliters to reduce the amount of materials such as bulk diluents required by AST method 101 and/or minimize light artifacts and provide sampling of a consistent number of microbes from the 1:250 dilution of the 0.5 MacFarland inoculum. Decreasing the volume of inoculum in test well 20 generally increases the light artifacts. In some instances, capturing a single vertical plane 103 at 20× objective whereby AST camera 35 is set at 0.33 microns/pixel may be sufficient for sampling the inoculum and ensuring that each individual microbe is recognizable. However, these parameters are configurable and may change as desired by the user or the underlying needs of the system. Capturing three focal sites spaced about 5 microns apart within single vertical plane 103 may also provide a sufficient number of microbes in the sample to count for use in optimized AST method 101. These three focal sites are labeled site 105, site 107, and site 109 in FIG. 8. In an exemplary version of optimized AST method 101, each focal site is approximately 700×700 microns within single vertical plane 103, rather than capturing three sites in three different vertical planes. AST camera 35, optics system 9, and computer 49 are configured to capture an image of each focal site in consecutive time periods, manipulate each of these images, and thereafter use the data derived from these manipulated images to make a MIC determination.
Once data extraction step 117 derives the desired information from segmented image 143, image analysis cycle 102 terminates. Optimized AST method 101 iteratively performs image analysis cycle 102 at set time intervals to determine how the microbes in each test well 20 are changing and reacting to the particular antimicrobic dilution pairing. Further, optimized AST method 101 iteratively performs image analysis cycle 102 on each test well 20 associated with the microbes to determine how the microbes are reacting to each concentration of the antimicrobic dilution. For example, presume the microbes being tested are E. coli bacteria and three test wells 20 are being tested, with each test well 20 having a 20-microliter solution therein. The first test well 20 may contain an antimicrobic dilution of 1 microgram per milliliter (μg/ml), the second test well 20 may contain an antimicrobic dilution of 2 μg/ml, and the third test well 20 may contain an antimicrobic dilution of 4 μg/ml. Optimized AST method 101 performs image analysis cycle 102 on each of the three test wells at each set time interval to determine (a) how each antimicrobic dilution is affecting the microbes; and (b) how each antimicrobic dilution is performing relative to the other antimicrobic dilutions. If the data indicates the 1 μg/ml antimicrobic dilution is as effective as the 2 and 4 μg/ml antimicrobic dilutions at neutralizing the microbes, the 1 μg/ml antimicrobic dilution is the MIC.
In step 163, the MIC is determined. The determination is based on the data collected during each iteration of image analysis cycle 102 for all of the antimicrobic dilutions for a microbial sample as well as for a control well where no antimicrobial agent was present. As described in the following section, this determination may involve processing the collected data with a machine learning model that had previously been trained to make determinations of whether an antimicrobial dilution in a test well would inhibit growth and then determining the MIC based on the test well with the lowest concentration where the machine learning model made a determination that growth would be inhibited. […]

Pseudomonas aeruginosa [2] = assay: Target growth or no growth label determined after 16 hours; type: cell-based; set-up: key: a value of 1 could be interpreted as a determination that growth would not be inhibited; a value of 0 could be interpreted as a determination that growth would be inhibited; conditions: growth label after 16 hours
Description: As an illustration of how these types of training approaches could be applied in practice, consider tables 5-12, below. In those tables, tables 5-9 provides GRU kernel weights, GRU recurrent weights, GRU bias weights, dense kernel weights, and a dense bias weight for a model implemented using the Keras API (an open source project governed by the Keras Special Interest Group and available at https://keras.io) and Tensorflow backend (an open source machine learning platform developed by Google, Inc. and available at https://www.tensorflow.org/) comprising a network cluster with 24 GRUs trained to make MIC determinations at 4, 5 and 6 hours based on training data for 56 microorganism strains when combined with various antimicrobials and the various combinations were labeled with growth or no growth information determined after 16 hours. In particular, table 5 provides a 1×72 array, in which the first 24 values would be mapped to Wz, the second 24 values would be mapped to Wr and the third 24 values would be mapped to Wh in an embodiment following FIG. 19. Table 6 provides a 72×24 array, in which the first 24×24 array (i.e., the first 24 bracketed sets of values) would be mapped to Uz, the next 24×24 array would be mapped to Ur and the third 24×24 array would be mapped to Uh in an embodiment following FIG. 19. Table 7 provides a 1×72 array, in which the first 24 values would be mapped to bz, the second 24 values would be mapped to br and the third 24 values would be mapped to bh in an embodiment following FIG. 19. Table 8 provides a 1×1344 array of values which would be multiplied by the output of the combination function 1806 in the dense layer 1807. Table 9 provides a bias value which would be added to the output of the dense layer 1807 before it was provided to the activation function 1808. Table 10 provides growth/no growth determinations made at 4, 5 and 6 hours by a system trained as described above for Pseudomonas aeruginosa and the drug Ceftazidime. Tables 11-12 provide microorganisms and antimicrobials included in the training data described above and for which the model was confirmed to be effective.

SMILES: CC(C)(O/N=C(\C(=O)N[C@@H]1C(=O)N2C(C(=O)[O-])=C(C[n+]3ccccc3)CS[C@H]12)c1csc(N)n1)C(=O)O [Ceftazidime]
- 4 Hour Call (Pseudomonas aeruginosa [1]; Dilution 0.03): 1
- 5 Hour Call (Pseudomonas aeruginosa [1]; Dilution 0.03): 1
- 6 Hour Call (Pseudomonas aeruginosa [1]; Dilution 0.03): 1
- 4 Hour Call (Pseudomonas aeruginosa [1]; Dilution 0.06): 1
- 5 Hour Call (Pseudomonas aeruginosa [1]; Dilution 0.06): 1
- 6 Hour Call (Pseudomonas aeruginosa [1]; Dilution 0.06): 1
- 4 Hour Call (Pseudomonas aeruginosa [1]; Dilution 0.12): 1
- 5 Hour Call (Pseudomonas aeruginosa [1]; Dilution 0.12): 1
- 6 Hour Call (Pseudomonas aeruginosa [1]; Dilution 0.12): 1
- 4 Hour Call (Pseudomonas aeruginosa [1]; Dilution 0.25): 1
- 5 Hour Call (Pseudomonas aeruginosa [1]; Dilution 0.25): 1
- 6 Hour Call (Pseudomonas aeruginosa [1]; Dilution 0.25): 1
- 4 Hour Call (Pseudomonas aeruginosa [1]; Dilution 0.5): 1
- 5 Hour Call (Pseudomonas aeruginosa [1]; Dilution 0.5): 1
- 6 Hour Call (Pseudomonas aeruginosa [1]; Dilution 0.5): 1
- 4 Hour Call (Pseudomonas aeruginosa [1]; Dilution 1): 0.2105
- 5 Hour Call (Pseudomonas aeruginosa [1]; Dilution 1): 0.9399
- 6 Hour Call (Pseudomonas aeruginosa [1]; Dilution 1): 0.9518
- 4 Hour Call (Pseudomonas aeruginosa [1]; Dilution 2): 0.003836
- 5 Hour Call (Pseudomonas aeruginosa [1]; Dilution 2): 4.89E−05
- 6 Hour Call (Pseudomonas aeruginosa [1]; Dilution 2): 3.77E−06
- 4 Hour Call (Pseudomonas aeruginosa [1]; Dilution 4): 0.002258
- 5 Hour Call (Pseudomonas aeruginosa [1]; Dilution 4): 7.26E−06
- 6 Hour Call (Pseudomonas aeruginosa [1]; Dilution 4): 2.27E−07
- 4 Hour Call (Pseudomonas aeruginosa [1]; Dilution 8): 0.0001531
- 5 Hour Call (Pseudomonas aeruginosa [1]; Dilution 8): 0.0005926
- 6 Hour Call (Pseudomonas aeruginosa [1]; Dilution 8): 0.000432
- 4 Hour Call (Pseudomonas aeruginosa [1]; Dilution 16): 0.003935
- 5 Hour Call (Pseudomonas aeruginosa [1]; Dilution 16): 0.001447
- 6 Hour Call (Pseudomonas aeruginosa [1]; Dilution 16): 2.32E−06
- 4 Hour Call (Pseudomonas aeruginosa [1]; Dilution 32): 0.009609
- 5 Hour Call (Pseudomonas aeruginosa [1]; Dilution 32): 5.69E−05
- 6 Hour Call (Pseudomonas aeruginosa [1]; Dilution 32): 1.23E−06
- 4 Hour Call (Pseudomonas aeruginosa [1]; Dilution 64): 0.001147
- 5 Hour Call (Pseudomonas aeruginosa [1]; Dilution 64): 1.21E−05
- 6 Hour Call (Pseudomonas aeruginosa [1]; Dilution 64): 1.64E−06
- Target (Pseudomonas aeruginosa [2]; Dilution 0.03): 1
- Target (Pseudomonas aeruginosa [2]; Dilution 0.06): 1
- Target (Pseudomonas aeruginosa [2]; Dilution 0.12): 1
- Target (Pseudomonas aeruginosa [2]; Dilution 0.25): 1
- Target (Pseudomonas aeruginosa [2]; Dilution 0.5): 1
- Target (Pseudomonas aeruginosa [2]; Dilution 1): 1
- Target (Pseudomonas aeruginosa [2]; Dilution 2): 0
- Target (Pseudomonas aeruginosa [2]; Dilution 4): 0
- Target (Pseudomonas aeruginosa [2]; Dilution 8): 0
- Target (Pseudomonas aeruginosa [2]; Dilution 16): 0
- Target (Pseudomonas aeruginosa [2]; Dilution 32): 0
- Target (Pseudomonas aeruginosa [2]; Dilution 64): 0
